Test results taken from patent publication US10004732B2 (Novartis AG, priority 2014, dated 2018).

Legend:
PI 3-kinase alpha [1] = molecular target: T1, PI 3-kinase alpha (Homo sapiens, UniProt P42336); test: Kinase Glo Luminescent Kinase Assay (Kglo), assay A; type: biochemical; settings: read-out: Assay A PI3Kα IC50
PI 3-kinase beta [2] = molecular target: T2, PI 3-kinase beta (Homo sapiens, UniProt P42338); test: Kinase Glo Luminescent Kinase Assay (Kglo), assay B; type: biochemical; settings: read-out: Assay B PI3Kβ IC50
Target sequence in this assay (P42338 whole entry): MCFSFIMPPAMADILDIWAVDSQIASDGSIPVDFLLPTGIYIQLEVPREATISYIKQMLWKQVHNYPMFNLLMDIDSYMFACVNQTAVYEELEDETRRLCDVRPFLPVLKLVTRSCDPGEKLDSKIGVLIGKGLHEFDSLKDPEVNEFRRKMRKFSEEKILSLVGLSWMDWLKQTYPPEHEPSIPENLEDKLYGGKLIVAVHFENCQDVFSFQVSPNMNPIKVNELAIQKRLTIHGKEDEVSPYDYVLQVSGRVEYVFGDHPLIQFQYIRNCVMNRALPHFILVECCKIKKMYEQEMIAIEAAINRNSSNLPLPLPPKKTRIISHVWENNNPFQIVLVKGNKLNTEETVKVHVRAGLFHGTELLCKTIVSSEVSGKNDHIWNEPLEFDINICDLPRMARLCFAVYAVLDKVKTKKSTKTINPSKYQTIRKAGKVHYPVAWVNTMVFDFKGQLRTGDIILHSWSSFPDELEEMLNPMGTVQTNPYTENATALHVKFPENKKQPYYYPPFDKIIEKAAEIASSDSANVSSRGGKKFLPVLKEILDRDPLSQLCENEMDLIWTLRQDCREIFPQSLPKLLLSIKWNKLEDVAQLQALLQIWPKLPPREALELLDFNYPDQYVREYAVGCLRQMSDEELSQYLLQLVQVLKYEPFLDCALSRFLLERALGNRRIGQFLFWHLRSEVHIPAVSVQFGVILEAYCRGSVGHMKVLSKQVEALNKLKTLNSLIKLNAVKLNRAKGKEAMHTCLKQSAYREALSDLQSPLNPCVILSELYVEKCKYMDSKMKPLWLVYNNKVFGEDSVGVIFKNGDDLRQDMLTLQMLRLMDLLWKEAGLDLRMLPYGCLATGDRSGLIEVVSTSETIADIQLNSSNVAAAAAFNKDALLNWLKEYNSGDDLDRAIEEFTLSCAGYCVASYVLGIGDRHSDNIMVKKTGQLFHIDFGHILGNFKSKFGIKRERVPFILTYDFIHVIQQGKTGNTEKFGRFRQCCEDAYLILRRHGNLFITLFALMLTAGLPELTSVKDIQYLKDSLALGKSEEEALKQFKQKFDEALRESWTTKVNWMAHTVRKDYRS
Target sequence in this assay (P27986 461-568 partner): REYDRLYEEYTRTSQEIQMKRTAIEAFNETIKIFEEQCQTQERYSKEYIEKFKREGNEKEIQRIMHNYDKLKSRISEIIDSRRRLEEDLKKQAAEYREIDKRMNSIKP

Vps34 = Vps34 (Homo sapiens, UniProt Q8NEB9); test: Kinase Glo Luminescent Kinase Assay (Kglo), assay C; type: biochemical; settings: read-out: Assay C VPS34 IC50
PI 4-kinase beta = PI 4-kinase beta (Homo sapiens, UniProt Q9UBF8); test: Kinase Glo Luminescent Kinase Assay (Kglo), assay D; type: biochemical; settings: read-out: Assay D PI4Kβ IC50
PI 4-kinase beta, sequence (Q9UBF8 whole entry): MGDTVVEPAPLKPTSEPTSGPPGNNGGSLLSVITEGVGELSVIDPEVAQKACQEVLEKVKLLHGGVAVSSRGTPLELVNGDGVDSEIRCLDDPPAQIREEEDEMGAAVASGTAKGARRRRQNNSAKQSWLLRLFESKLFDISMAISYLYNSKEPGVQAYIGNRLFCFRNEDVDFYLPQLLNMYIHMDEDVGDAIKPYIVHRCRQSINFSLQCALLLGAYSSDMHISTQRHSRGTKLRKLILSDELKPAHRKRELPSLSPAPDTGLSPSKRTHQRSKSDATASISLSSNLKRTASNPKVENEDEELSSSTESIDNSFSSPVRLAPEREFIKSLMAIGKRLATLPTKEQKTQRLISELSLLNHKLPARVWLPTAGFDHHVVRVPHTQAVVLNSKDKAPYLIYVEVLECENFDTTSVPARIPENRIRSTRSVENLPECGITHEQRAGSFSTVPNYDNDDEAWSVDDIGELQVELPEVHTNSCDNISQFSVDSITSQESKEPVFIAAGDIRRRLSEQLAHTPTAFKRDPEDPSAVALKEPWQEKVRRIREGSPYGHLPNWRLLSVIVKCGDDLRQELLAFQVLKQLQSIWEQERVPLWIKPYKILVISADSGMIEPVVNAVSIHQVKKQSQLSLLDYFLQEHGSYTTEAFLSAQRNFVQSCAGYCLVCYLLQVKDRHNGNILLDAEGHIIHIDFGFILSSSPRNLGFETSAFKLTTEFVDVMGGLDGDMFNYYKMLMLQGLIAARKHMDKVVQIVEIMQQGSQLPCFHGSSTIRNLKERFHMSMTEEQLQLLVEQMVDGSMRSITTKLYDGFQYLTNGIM

PI 3-kinase gamma [3] = molecular target: T3, PI 3-kinase gamma (Homo sapiens, UniProt P48736); test: TR-FRET Adapta assay, assay E; type: biochemical; settings: read-out: Assay E PI3Kγ IC50
T3 sequence (P48736 whole entry): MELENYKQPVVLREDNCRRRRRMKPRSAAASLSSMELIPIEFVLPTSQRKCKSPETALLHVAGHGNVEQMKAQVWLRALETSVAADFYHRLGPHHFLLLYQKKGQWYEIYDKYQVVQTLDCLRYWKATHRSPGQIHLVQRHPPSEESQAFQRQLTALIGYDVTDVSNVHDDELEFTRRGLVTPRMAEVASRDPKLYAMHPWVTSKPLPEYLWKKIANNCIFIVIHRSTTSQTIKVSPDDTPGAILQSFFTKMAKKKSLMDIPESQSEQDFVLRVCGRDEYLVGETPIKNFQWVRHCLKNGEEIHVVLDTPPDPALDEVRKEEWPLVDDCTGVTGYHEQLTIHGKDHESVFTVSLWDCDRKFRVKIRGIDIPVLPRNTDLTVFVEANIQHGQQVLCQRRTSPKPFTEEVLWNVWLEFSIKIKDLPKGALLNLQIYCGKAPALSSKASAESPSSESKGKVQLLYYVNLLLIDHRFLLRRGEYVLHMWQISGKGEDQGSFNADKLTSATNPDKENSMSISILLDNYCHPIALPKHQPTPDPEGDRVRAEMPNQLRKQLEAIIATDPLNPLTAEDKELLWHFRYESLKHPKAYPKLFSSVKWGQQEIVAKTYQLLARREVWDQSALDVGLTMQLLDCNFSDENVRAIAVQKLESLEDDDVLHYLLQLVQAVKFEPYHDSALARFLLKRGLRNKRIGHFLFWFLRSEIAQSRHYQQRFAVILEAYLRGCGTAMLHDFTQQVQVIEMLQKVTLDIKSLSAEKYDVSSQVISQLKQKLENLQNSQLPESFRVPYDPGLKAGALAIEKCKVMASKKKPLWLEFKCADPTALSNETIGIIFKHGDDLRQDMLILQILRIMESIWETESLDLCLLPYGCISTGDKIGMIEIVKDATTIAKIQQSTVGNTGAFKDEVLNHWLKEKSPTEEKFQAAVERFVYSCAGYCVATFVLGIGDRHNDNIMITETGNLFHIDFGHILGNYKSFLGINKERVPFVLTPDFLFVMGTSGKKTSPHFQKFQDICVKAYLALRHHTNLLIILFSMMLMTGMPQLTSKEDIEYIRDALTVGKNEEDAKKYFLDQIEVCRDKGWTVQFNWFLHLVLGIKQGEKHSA

mTOR = mTOR (Homo sapiens, UniProt P42345); test: Lanthascreen kinase binding assay, assay G; settings: read-out: Assay G mTOR IC50
Description: Lanthascreen™ Kinase Binding Assay for mTOR (G)
Binding of an inhibitor to the kinase competes for binding with the tracer, resulting in a loss of FRET.
50 nL of compound dilutions were dispensed onto white 384-well small volume polystyrene plate.

PI 3-kinase alpha [4] = molecular target: T1, PI 3-kinase alpha; test: Cellular assay H1, p-Akt (S473) in Rat-1 cells, Surefire format; type: cell-based; settings: non-asterisked data: version H1 (Surefire format), Rat-1 cells; read-out: Assay H PI3Kα IC50
PI 3-kinase beta [5] = molecular target: T2, PI 3-kinase beta; test: Cellular assay I1, p-Akt (S473) in Rat-1 cells, Surefire format; type: cell-based; settings: non-asterisked data: version I1 (Surefire format), Rat-1 cells; read-out: Assay I PI3Kβ IC50
Target sequence in this assay (P42338 whole entry): as the sequence (P42338 whole entry) above
Target sequence in this assay (Q63787 whole entry partner): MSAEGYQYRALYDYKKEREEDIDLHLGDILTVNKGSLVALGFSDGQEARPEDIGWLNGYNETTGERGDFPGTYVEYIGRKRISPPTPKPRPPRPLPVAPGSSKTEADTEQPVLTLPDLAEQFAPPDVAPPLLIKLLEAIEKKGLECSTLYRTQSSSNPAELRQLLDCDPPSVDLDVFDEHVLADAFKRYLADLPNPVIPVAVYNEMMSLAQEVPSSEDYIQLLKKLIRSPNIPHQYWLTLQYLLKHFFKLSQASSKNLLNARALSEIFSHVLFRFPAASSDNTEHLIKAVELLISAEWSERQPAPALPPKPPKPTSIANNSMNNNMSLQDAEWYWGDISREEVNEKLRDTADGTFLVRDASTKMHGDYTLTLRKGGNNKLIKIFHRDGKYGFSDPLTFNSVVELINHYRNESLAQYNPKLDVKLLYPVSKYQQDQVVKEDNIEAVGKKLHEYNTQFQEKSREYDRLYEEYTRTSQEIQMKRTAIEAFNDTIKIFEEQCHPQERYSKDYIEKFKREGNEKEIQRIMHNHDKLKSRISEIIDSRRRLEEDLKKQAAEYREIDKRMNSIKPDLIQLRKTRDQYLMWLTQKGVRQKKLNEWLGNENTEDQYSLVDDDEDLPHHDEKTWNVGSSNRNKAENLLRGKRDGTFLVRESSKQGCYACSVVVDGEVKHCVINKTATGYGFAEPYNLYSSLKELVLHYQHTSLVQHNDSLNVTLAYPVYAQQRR

PI 3-kinase delta [6] = molecular target: T4, PI 3-kinase delta (Homo sapiens, UniProt O00329); test: Cellular assay J1, p-Akt (S473) in Rat-1 cells, Surefire format; type: cell-based; settings: non-asterisked data: version J1 (Surefire format), Rat-1 cells; read-out: Assay J PI3Kδ IC50
Target sequence in this assay (O00329 whole entry): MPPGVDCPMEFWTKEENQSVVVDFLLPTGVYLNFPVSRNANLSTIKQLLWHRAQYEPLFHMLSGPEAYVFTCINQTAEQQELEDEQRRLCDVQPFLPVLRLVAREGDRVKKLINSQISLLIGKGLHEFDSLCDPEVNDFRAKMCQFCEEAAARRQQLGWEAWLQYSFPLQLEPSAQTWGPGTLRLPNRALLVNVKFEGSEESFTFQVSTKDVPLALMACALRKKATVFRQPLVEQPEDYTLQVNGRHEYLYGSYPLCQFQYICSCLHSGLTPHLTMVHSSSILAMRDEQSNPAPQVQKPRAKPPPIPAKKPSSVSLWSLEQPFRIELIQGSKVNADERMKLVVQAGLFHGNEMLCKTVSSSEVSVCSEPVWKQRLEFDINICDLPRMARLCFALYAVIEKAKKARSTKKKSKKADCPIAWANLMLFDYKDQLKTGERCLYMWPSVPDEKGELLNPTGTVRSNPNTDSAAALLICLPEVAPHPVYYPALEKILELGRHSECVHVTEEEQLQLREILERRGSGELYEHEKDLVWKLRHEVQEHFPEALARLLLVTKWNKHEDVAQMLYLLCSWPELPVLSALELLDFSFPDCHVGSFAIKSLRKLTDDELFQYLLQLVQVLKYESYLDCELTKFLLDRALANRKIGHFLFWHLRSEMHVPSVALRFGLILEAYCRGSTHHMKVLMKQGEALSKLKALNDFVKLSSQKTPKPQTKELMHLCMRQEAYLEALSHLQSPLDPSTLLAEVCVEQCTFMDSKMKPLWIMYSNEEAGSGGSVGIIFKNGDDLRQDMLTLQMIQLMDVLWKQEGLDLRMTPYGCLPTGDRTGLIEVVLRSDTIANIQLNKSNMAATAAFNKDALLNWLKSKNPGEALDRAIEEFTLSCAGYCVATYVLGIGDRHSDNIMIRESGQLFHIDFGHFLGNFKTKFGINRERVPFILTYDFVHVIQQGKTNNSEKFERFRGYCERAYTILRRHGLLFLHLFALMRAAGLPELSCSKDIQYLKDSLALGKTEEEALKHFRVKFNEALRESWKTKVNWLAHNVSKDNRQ
Target sequence in this assay (Q63787 whole entry partner): as the sequence (Q63787 whole entry partner) above
Excerpt: Cellular Assays for PI 3-Kinase Alpha (H1), Beta (I1) and Delta (J1): Surefire Format
AlphaScreen (Amplified Luminescent Proximity Homogeneous Assay, ALPHA, Perkin Elmer) is a non-radioactive bead-based proximity assay technology to study biomolecular interactions in a homogenous microtiter plate format. The brand name SureFire denotes AlphaScreen assays that are adapted to quantify the phosphorylation of endogenous cellular proteins in cell lysates, by using matched antibody pairs, which consist of an anti-phospho-kinase and an anti-kinase antibody. The assay allows characterization of kinase signaling in cells as well as measurement of kinase inhibitor effects.
Using Rat-1 cells stably expressing myr-HA-tagged versions of the human PI3Kdelta, PI3Kalpha, or PI3Kbeta p110 catalytic subunit isoforms, the assay was developed as a two-plate protocol in a 384-well format.
For compound testing, the cells were seeded at a density of 4000 (Rat-1_PI3Kdelta), 7500 (Rat-1_PI3Kalpha), or 6200 (Rat-1_PI3Kbeta) cells in 20 μl complete growth medium into cell culture treated 384-well plates and were grown at 37° C./5% CO2/90% humidity for 24 h. Shortly before compound transfer, the complete medium was removed, 30 μl assay buffer (DMEM high glucose, 1×MEM NEAA, 10 mM HEPES, 2 mM L-glutamine, 0.1% (w/v) BSA) was added and 10 μl of the compound predilutions were transferred to the cells.

PI 3-kinase delta [7] = molecular target: T4, PI 3-kinase delta; test: TR-FRET Adapta assay, assay F; settings: read-out: Assay F PI3Kδ IC50
Target sequence in this assay (O00329 whole entry): as the sequence (O00329 whole entry) above
Target sequence in this assay (P27986 461-568 partner): as the sequence (P27986 461-568 partner) above

[8] = Microsomal clearance assay (M); settings: intrinsic clearance in rat liver microsomes
Description: The experiments were performed in 96-well glass plates at 37° C. on an automated Tecan EVO platform. Test compounds at a concentration of 10 mM in pure DMSO were diluted 1:1000 in water to 10 μM. […] Reactions were initiated by the addition of 150 μL of a cofactor solution containing 2 mM NADPH.

PI 3-kinase gamma [9] = molecular target: T3, PI 3-kinase gamma; test: Cellular U937 AKT assay K1 (MSD); type: cell-based; settings: U937 cells, K1 format; read-out: Assay K1 PI3Kγ IC50

Row | SMILES | IC50 (PI 3-kinase alpha [1]) | IC50 (PI 3-kinase beta [2]) | IC50 (Vps34) | IC50 (PI 4-kinase beta) | IC50 (PI 3-kinase gamma [3]) | IC50 (mTOR) | IC50 (PI 3-kinase alpha [4]) | IC50 (PI 3-kinase beta [5]) | IC50 (PI 3-kinase delta [6]) | IC50 (PI 3-kinase delta [7]) | Assay M RLM CI(int) [8] | IC50 (PI 3-kinase gamma [9])
1 | Cc1csc(-c2nc(-c3cc(S(=O)(=O)NCCC(C)(C)O)ccc3C)cnc2N)c1 [Example 119.43] | 0.25 µM | 1.78 µM | > 9.1 µM | > 9.1 µM | 0.054 µM | 3.37 µM | – | – | – | 0.1 µM | 136 µL/min/mg | 0.06 µM
2 | Cc1ccc(S(=O)(=O)NCC(C)(C)O)cc1-c1cnc(N)c(-c2cn(C)nn2)n1 [Example 81, 3-(5-Amino-6-(1-methyl-1H-1,2,3-triazol-4-yl)pyrazin-2-yl)-N-(2-hydroxy-2-methylpropyl)-4-methylbenzenesulfonamide] | 2.6 µM | 6.3 µM | > 10 µM | 9 µM | 0.077 µM | > 10 µM | > 10 µM | > 10 µM | 4.04 µM | 2.5 µM | 29 µL/min/mg | –
3 | CCc1noc(-c2nc(-c3cc(S(=O)(=O)NC4CNC4)ccc3C)cnc2N)n1 [Example 137, 3-(5-Amino-6-(3-ethyl-1,2,4-oxadiazol-5-yl)pyrazin-2-yl)-N-(azetidin-3-yl)-4-methylbenzenesulfonamide] | 1.74 µM | > 9.1 µM | > 9.1 µM | > 9.1 µM | 0.058 µM | 0.95 µM | > 10 µM | > 10 µM | 8.58 µM | 0.33 µM | 28 µL/min/mg | –
4 | Cc1noc(-c2nc(-c3cc(S(=O)(=O)NC[C@H]4C[C@@H](O)C4)ccc3C)cnc2N)n1 [Example 96, 3-(5-Amino-6-(3-methyl-1,2,4-oxadiazol-5-yl)pyrazin-2-yl)-N-(((1s,3s)-3-hydroxycyclobutyl)methyl)-4-methylbenzenesulfonamide] | 0.55 µM | 3.35 µM | – | > 9.55 µM | 0.092 µM | 8.8 µM | – | – | – | 0.55 µM | 62 µL/min/mg | 0.276 µM
5 | Cc1ccc(S(=O)(=O)NCCC(C)(C)O)cc1-c1cnc(N)c(-c2cnc(C3CC3)s2)n1 [Example 107, 3-(5-Amino-6-(2-cyclopropylthiazol-5-yl)pyrazin-2-yl)-N-(3-hydroxy-3-methylbutyl)-4-methylbenzenesulfonamide] | 0.08 µM | 2.09 µM | 3.1 µM | 0.94 µM | 0.006 µM | 1.39 µM | 0.79 µM | 1.29 µM | 0.96 µM | 0.06 µM | 119 µL/min/mg | –
6 | Cc1ccc(S(=O)(=O)NCCC(C)(C)O)cc1-c1cnc(N)c(-c2cnn(CC(C)C)c2)n1 [Example 119.32] | 0.26 µM | 3.22 µM | > 9.1 µM | 2.67 µM | 0.011 µM | 6.04 µM | 1.68 µM | 6.04 µM | 0.79 µM | 0.2 µM | 191 µL/min/mg | –
7 | Cc1ccc(S(=O)(=O)NCCC(C)(C)O)cc1-c1cnc(N)c(-c2cnn(CCC(C)C)c2)n1 [Example 119.26] | 0.25 µM | 3.9 µM | > 9.1 µM | 1.79 µM | 0.037 µM | 5.87 µM | 0.7 µM | 1.8 µM | 0.51 µM | 0.04 µM | 380 µL/min/mg | –
8 | CCn1cc(-c2nc(-c3cc(S(=O)(=O)NCC(C)(C)O)ccc3C)cnc2N)nn1 [Example 83, 3-(5-Amino-6-(1-ethyl-1H-1,2,3-triazol-4-yl)pyrazin-2-yl)-N-(2-hydroxy-2-methylpropyl)-4-methylbenzenesulfonamide] | 1.9 µM | 5.2 µM | > 10 µM | 4.3 µM | 0.085 µM | > 10 µM | > 10 µM | 8.75 µM | 4.05 µM | 0.7 µM | 45 µL/min/mg | –
9 | COc1nc(-c2nc(-c3cc(S(=O)(=O)NCCC(C)(C)O)ccc3C)cnc2N)cs1 [Example 110, 3-(5-Amino-6-(2-methoxythiazol-4-yl)pyrazin-2-yl)-N-(3-hydroxy-3-methylbutyl)-4-methylbenzenesulfonamide] | 0.09 µM | 0.52 µM | > 10 µM | > 10 µM | 0.01 µM | > 10 µM | 0.48 µM | 1.73 µM | 0.69 µM | 0.32 µM | 254 µL/min/mg | –

Now from value to compound:

Row | IC50 (PI 3-kinase alpha [1]) | IC50 (PI 3-kinase beta [2]) | IC50 (Vps34) | IC50 (PI 4-kinase beta) | IC50 (PI 3-kinase gamma [3]) | IC50 (mTOR) | IC50 (PI 3-kinase alpha [4]) | IC50 (PI 3-kinase beta [5]) | IC50 (PI 3-kinase delta [6]) | IC50 (PI 3-kinase delta [7]) | Assay M RLM CI(int) [8] | IC50 (PI 3-kinase gamma [9]) | SMILES
10 | 0.21 µM | 4.5 µM | > 9.1 µM | > 9.1 µM | 0.059 µM | 5.7 µM | 2.96 µM | 5.15 µM | 2.96 µM | 0.48 µM | 347 µL/min/mg | – | Cc1cc(-c2nc(-c3cc(S(=O)(=O)NCC4CCCOC4)ccc3C)cnc2N)ccn1 (stereo not drawn) [Example 129.14, 3-(5-amino-6-(2-methylpyridin-4-yl)pyrazin-2-yl)-4-methyl-N-((tetrahydro-2H-pyran-3-yl)methyl)benzenesulfonamide]
11 | 1.8 µM | 4.6 µM | > 10 µM | > 10 µM | 0.14 µM | 6.7 µM | – | – | – | 1.2 µM | – | 1.88 µM | Cc1ccc(S(=O)(=O)NCC(C)(C)N2CCOCC2)cc1-c1cnc(N)c(-n2cncn2)n1 [Example 127.32]
12 | 0.24 µM | 1.8 µM | > 10 µM | 3.9 µM | 0.124 µM | > 10 µM | – | – | – | 0.64 µM | – | 0.131 µM | Cc1ccc(S(=O)(=O)NCCCF)cc1-c1cnc(N)c(-n2cncn2)n1 [Example 127.29]
13 | 0.45 µM | 5.1 µM | > 10 µM | 8.4 µM | 0.16 µM | > 10 µM | – | – | – | 3.5 µM | – | 0.29 µM | Cc1ccc(S(=O)(=O)NCCF)cc1-c1cnc(N)c(-n2cncn2)n1 [Example 127.28]
14 | 0.38 µM | 3.2 µM | > 10 µM | 3.4 µM | 0.16 µM | > 10 µM | – | – | – | > 10 µM | – | 0.371 µM | Cc1ccc(S(=O)(=O)N2CCC(F)(F)C2)cc1-c1cnc(N)c(-n2cncn2)n1 [Example 127.3]
15 | 0.18 µM | 0.58 µM | > 10 µM | 2.9 µM | 0.023 µM | – | – | – | – | 0.36 µM | – | 0.082 µM | Cc1ccc(S(=O)(=O)NC[C@](C)(O)C(F)(F)F)cc1-c1cnc(N)c(-n2cncn2)n1 [Example 127.23]
16 | 0.28 µM | 0.53 µM | > 10 µM | 3.8 µM | 0.026 µM | 6.1 µM | – | – | – | 1.1 µM | – | 0.21 µM | Cc1ccc(S(=O)(=O)NC[C@@H](C)O)cc1-c1cnc(N)c(-n2cncn2)n1 [Example 127.13]
17 | 0.2 µM | 0.79 µM | > 10 µM | 1.8 µM | 0.027 µM | 4.7 µM | – | – | – | 0.32 µM | – | 0.168 µM | Cc1ccc(S(=O)(=O)NCCC(C)(O)C(F)(F)F)cc1-c1cnc(N)c(-n2cncn2)n1 (stereo not drawn) [Example 127.24]
18 | 0.89 µM | 1.2 µM | > 10 µM | 7.4 µM | 0.038 µM | > 10 µM | – | – | – | 1.1 µM | – | 0.392 µM | Cc1ccc(S(=O)(=O)NCC2CCCCO2)cc1-c1cnc(N)c(-n2cncn2)n1 (stereo not drawn) [Example 127.17]
19 | 0.49 µM | 7.1 µM | > 9.1 µM | > 9.1 µM | 0.016 µM | > 9.1 µM | 7.6 µM | > 10 µM | 6.84 µM | 0.34 µM | 139 µL/min/mg | – | Cc1cc(-c2nc(-c3cc(S(=O)(=O)NCCCCCO)ccc3C)cnc2N)ccn1 [Example 129.3, 3-(5-amino-6-(2-methylpyridin-4-yl)pyrazin-2-yl)-N-(5-hydroxypentyl)-4-methylbenzenesulfonamide]
20 | 0.36 µM | 1.9 µM | > 10 µM | > 10 µM | 0.098 µM | 3 µM | – | – | – | 1.2 µM | – | 0.32 µM | Cc1ccc(S(=O)(=O)N[C@H]2CCOC2)cc1-c1cnc(N)c(-n2cncn2)n1 [Example 127.21]
21 | 0.27 µM | 0.97 µM | > 10 µM | 8.3 µM | 0.04 µM | 3.9 µM | – | – | – | 0.5 µM | – | 0.156 µM | Cc1ccc(S(=O)(=O)NC[C@@](C)(O)C(F)(F)F)cc1-c1cnc(N)c(-n2cncn2)n1 [Example 127.22]
